Assays:
[1] = target: Mast/stem cell growth factor receptor Kit (Homo sapiens, UniProt P10721)
[2] = target: Vascular endothelial growth factor receptor 1 (Homo sapiens, UniProt P17948)
[3] = target: Vascular endothelial growth factor receptor 2 (Homo sapiens, UniProt P35968)
[4] = target: Cytochrome P450 3A4 (Homo sapiens, UniProt P08684); test: Inhibition of CYP3A4 in human liver microsome; format: ADME
[5] = target: Angiopoietin-1 receptor (Homo sapiens, UniProt Q02763); test: Inhibition of Tie2 at 1 mM ATP by HTRF assay

Sequence of Vascular endothelial growth factor receptor 1 (P17948 whole entry): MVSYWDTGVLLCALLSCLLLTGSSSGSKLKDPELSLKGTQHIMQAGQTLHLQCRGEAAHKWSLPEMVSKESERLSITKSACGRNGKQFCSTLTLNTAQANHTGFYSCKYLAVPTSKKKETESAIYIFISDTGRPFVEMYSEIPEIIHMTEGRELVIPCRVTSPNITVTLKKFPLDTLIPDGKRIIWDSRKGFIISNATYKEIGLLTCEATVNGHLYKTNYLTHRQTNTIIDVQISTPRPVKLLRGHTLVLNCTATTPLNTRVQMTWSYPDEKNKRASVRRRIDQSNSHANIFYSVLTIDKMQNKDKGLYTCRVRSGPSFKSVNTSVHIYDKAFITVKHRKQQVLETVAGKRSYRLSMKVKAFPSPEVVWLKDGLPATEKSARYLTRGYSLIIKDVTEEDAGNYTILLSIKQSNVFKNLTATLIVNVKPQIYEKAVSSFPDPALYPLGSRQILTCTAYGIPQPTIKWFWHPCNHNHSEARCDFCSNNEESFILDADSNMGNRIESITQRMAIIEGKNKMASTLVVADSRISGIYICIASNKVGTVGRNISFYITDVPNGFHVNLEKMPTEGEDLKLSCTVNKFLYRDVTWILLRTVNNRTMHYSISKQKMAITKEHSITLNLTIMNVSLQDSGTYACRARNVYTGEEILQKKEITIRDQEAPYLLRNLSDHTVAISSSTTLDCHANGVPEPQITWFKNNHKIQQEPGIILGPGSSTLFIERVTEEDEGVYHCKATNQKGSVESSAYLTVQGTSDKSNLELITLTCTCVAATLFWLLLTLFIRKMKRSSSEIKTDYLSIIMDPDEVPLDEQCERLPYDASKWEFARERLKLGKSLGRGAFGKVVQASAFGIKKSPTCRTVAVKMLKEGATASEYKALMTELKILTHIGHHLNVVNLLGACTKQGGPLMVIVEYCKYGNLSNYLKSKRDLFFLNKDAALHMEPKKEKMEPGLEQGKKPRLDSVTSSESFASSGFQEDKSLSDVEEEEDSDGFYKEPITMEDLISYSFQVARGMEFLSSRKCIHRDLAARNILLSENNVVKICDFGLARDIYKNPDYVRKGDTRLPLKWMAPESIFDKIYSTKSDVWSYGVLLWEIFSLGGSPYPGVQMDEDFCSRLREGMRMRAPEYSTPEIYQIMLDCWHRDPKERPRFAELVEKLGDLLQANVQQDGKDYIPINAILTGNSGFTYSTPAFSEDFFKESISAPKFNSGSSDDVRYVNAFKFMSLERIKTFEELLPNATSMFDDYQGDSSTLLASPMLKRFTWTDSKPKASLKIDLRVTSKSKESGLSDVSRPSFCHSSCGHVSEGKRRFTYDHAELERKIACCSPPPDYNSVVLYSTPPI
Sequence of Vascular endothelial growth factor receptor 2 (P35968 whole entry): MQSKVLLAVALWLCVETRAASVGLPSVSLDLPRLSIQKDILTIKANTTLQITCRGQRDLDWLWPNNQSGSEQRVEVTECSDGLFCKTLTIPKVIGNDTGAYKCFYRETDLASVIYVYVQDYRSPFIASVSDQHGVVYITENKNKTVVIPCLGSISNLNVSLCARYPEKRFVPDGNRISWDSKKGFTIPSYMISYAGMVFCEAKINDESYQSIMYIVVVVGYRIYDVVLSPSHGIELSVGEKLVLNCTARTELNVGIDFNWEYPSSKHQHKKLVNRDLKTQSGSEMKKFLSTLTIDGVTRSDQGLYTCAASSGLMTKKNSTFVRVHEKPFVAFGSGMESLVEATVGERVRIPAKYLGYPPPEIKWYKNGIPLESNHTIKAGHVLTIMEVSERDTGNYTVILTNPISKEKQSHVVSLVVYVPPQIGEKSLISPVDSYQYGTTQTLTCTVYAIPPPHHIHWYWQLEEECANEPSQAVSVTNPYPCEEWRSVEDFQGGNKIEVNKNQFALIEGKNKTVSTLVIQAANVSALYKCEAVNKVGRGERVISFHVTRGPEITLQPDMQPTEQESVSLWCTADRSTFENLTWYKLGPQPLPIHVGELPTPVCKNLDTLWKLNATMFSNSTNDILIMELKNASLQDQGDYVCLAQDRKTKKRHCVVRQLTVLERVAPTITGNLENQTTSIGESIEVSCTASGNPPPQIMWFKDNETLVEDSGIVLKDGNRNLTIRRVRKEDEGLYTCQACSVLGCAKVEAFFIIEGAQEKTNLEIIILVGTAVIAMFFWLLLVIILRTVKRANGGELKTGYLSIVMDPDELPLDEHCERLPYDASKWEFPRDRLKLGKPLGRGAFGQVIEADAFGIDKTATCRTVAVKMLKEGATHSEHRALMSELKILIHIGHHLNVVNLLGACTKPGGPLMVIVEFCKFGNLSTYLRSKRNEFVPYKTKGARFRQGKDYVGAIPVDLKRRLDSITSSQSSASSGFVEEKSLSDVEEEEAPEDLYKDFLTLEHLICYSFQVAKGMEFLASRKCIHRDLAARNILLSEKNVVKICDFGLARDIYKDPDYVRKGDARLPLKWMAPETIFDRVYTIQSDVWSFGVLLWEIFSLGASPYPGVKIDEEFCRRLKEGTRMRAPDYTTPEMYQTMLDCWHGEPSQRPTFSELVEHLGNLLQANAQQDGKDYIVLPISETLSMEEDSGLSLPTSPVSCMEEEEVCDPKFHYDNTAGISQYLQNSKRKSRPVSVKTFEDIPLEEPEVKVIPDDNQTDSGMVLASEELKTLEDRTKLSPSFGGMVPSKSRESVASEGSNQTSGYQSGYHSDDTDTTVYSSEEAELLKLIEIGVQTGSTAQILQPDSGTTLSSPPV
Sequence of Mast/stem cell growth factor receptor Kit (P10721 whole entry): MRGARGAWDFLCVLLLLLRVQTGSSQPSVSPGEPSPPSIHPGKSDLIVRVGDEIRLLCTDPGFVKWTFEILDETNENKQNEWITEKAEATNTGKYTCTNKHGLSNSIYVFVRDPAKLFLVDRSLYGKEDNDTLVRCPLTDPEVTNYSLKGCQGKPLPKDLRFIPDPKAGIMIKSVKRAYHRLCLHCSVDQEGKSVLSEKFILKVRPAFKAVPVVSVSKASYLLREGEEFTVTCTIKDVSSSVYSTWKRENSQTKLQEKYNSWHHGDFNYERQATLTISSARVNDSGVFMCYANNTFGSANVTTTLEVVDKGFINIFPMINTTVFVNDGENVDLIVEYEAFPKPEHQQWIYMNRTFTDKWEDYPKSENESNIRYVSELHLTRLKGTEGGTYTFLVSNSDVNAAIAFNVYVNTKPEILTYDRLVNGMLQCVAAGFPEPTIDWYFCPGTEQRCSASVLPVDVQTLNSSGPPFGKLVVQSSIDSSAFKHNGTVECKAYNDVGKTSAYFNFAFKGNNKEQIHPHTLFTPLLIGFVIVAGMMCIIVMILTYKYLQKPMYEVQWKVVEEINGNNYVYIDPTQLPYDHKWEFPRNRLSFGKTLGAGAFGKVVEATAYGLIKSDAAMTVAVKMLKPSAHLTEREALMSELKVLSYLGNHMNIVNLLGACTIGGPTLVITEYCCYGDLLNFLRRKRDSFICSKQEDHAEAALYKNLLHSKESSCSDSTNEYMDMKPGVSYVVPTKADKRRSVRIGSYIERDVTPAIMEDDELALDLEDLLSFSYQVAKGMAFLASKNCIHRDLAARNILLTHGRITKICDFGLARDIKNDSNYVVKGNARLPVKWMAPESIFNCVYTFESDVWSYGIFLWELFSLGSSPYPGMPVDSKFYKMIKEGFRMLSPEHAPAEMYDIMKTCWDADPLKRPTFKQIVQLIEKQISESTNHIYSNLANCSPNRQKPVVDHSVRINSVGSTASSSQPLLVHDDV
Sequence of Cytochrome P450 3A4 (P08684 whole entry): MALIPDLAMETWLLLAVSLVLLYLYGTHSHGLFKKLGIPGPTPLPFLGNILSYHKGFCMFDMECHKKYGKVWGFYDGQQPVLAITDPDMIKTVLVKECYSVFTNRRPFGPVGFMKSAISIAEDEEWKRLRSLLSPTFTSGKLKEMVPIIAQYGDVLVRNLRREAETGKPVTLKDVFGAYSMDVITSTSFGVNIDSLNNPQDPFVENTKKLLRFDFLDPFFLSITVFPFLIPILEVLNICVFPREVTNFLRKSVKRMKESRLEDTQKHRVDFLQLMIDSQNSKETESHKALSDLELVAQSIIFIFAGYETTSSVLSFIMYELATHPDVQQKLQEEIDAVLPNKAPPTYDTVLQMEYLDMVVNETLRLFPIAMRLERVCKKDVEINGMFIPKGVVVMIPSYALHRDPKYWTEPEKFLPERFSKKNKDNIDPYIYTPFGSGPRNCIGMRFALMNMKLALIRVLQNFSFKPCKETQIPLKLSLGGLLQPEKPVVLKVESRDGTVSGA

| IC50 [1] [µM] | IC50 [2] [µM] | IC50 [3] [µM] | IC50 [4] [µM] | IC50 [5] [µM] | Compound |
| --- | --- | --- | --- | --- | --- |
| 0.027 | 0.613 |  |  |  | Cc1ccc(NC(=O)NCc2ccc(-c3n[nH]c4c3Cc3ccc(CN5CCN(C)CC5)cc3-4)s2)cc1 |
| 0.027 | 1.67 |  |  |  | Cc1cc(C)cc(NC(=O)NCc2ccc(-c3n[nH]c4c3Cc3cc(CN5CCN(C)CC5)ccc3-4)s2)c1 |
| 0.921 |  |  |  |  | CN1CCN(Cc2ccc3c(c2)Cc2c(-c4ccc(CNC(=O)Nc5ccccc5Cl)s4)n[nH]c2-3)CC1 |
| > 50 | 3.84 |  |  |  | CN1CCN(Cc2ccc3c(c2)Cc2c-3n[nH]c2-c2ccc(CN(C)C(=O)Nc3ccccc3Cl)s2)CC1 |
| 17.2 | 1.59 |  |  |  | Cc1cccc(NC(=O)N(Cc2ccc(-c3[nH]nc4c3Cc3cc(CN5CCN(C)CC5)ccc3-4)s2)CC(C)C)c1 |
| 0.101 | 3.78 |  |  |  | CN1CCN(Cc2ccc3c(c2)-c2[nH]nc(-c4ccc(CNC(=O)Nc5ccccc5)s4)c2C3)CC1 |
| 0.017 | 0.038 |  |  |  | CN1CCN(Cc2ccc3c(c2)-c2n[nH]c(-c4ccc(CN(C)C(=O)Nc5ccc(Br)cc5)s4)c2C3)CC1 |
|  |  | > 50 |  |  | CN1CCN(Cc2ccc3c(c2)Cc2c-3n[nH]c2-c2csc(CNS(=O)(=O)Cc3ccccc3)c2)CC1 |
|  |  | 0.147 | 0.254 |  | c1cn(Cc2ccc3c(c2)-c2[nH]nc(-c4ccsc4)c2C3)cn1 |
| 0.013 | 4.2 |  |  |  | CN1CCN(Cc2ccc3c(c2)Cc2c(-c4ccc(CNC(=O)Nc5ccc(C(F)(F)F)cc5)s4)n[nH]c2-3)CC1 |
| 0.019 | 0.025 |  |  |  | CN1CCN(Cc2ccc3c(c2)-c2n[nH]c(-c4ccc(CN(C)C(=O)Nc5ccc(OC(F)(F)F)cc5)s4)c2C3)CC1 |
| 0.674 | 2.06 |  |  |  | Cc1ccccc1NC(=O)NCc1ccc(-c2[nH]nc3c2Cc2ccc(CN4CCN(C)CC4)cc2-3)s1 |
| 0.017 | 0.863 |  |  |  | CN1CCN(Cc2ccc3c(c2)Cc2c-3n[nH]c2-c2ccc(CNC(=O)Nc3cccc(C(F)(F)F)c3)s2)CC1 |
| 26.8 | 27.9 |  |  |  | Cc1cccc(N(C)C(=O)N(C)Cc2ccc(-c3[nH]nc4c3Cc3cc(CN5CCN(C)CC5)ccc3-4)s2)c1 |
| > 50 | 2.26 |  |  |  | COCCN(Cc1ccc(-c2[nH]nc3c2Cc2cc(CN4CCN(C)CC4)ccc2-3)s1)C(=O)Nc1cccc(C)c1 |
| 2.19 | 0.131 |  |  |  | CCN(Cc1ccc(-c2[nH]nc3c2Cc2cc(CN4CCN(C)CC4)ccc2-3)s1)C(=O)Nc1cccc(C)c1 |
| 0.086 | 2.9 |  |  |  | Cc1cccc(NC(=O)NCc2ccc(-c3n[nH]c4c3Cc3cc(CN5CCN(C)CC5)ccc3-4)s2)c1 |
|  |  |  | > 10 |  | CN1CCN(Cc2ccc3c(c2)-c2[nH]nc(-c4ccsc4)c2C3)CC1 |
| 4.84 | 3.62 |  |  |  | Cc1cccc(NC(=O)N(CCC(C)C)Cc2ccc(-c3[nH]nc4c3Cc3cc(CN5CCN(C)CC5)ccc3-4)s2)c1 |
| 0.018 | 0.014 |  |  | 0.259 | CN1CCN(Cc2ccc3c(c2)-c2n[nH]c(-c4ccc(CN(C)C(=O)Nc5cccc(C(F)(F)F)c5)s4)c2C3)CC1 |

| IC50 [1] [µM] | IC50 [2] [µM] | IC50 [3] [µM] | IC50 [4] [µM] | IC50 [5] [µM] | Compound |
| --- | --- | --- | --- | --- | --- |
| 0.136 | 0.038 |  |  |  | Cc1cccc(NC(=O)N(Cc2ccc(-c3[nH]nc4c3Cc3cc(CN5CCN(C)CC5)ccc3-4)s2)C2CC2)c1 |
| 0.237 | 1.35 |  |  |  | CON(Cc1ccc(-c2[nH]nc3c2Cc2cc(CN4CCN(C)CC4)ccc2-3)s1)C(=O)Nc1cccc(C)c1 |
| 0.069 | 0.592 |  |  |  | Cc1cccc(NC(=O)NCc2ccc(-c3n[nH]c4c3Cc3ccc(CN5CCN(C)CC5)cc3-4)s2)c1 |
|  |  | > 50 |  |  | Cc1cccc(N/C(=N/Cc2ccc(-c3n[nH]c4c3Cc3cc(CN5CCN(C)CC5)ccc3-4)s2)NC#N)c1 |
| 23.8 | > 50 |  |  |  | CN1CCN(Cc2ccc3c(c2)Cc2c-3n[nH]c2-c2ccc(CNC(=O)Nc3ccccc3C(F)(F)F)s2)CC1 |
| 0.028 | 0.036 |  |  |  | CN1CCN(Cc2ccc3c(c2)-c2n[nH]c(-c4ccc(CN(C)C(=O)Nc5ccc(Cl)c(Cl)c5)s4)c2C3)CC1 |
| 0.096 | 0.044 |  |  |  | Cc1cccc(NC(=O)N(C)Cc2ccc(-c3n[nH]c4c3Cc3ccc(CN5CCN(C)CC5)cc3-4)s2)c1 |
| 14.7 | 4.72 |  |  |  | Cc1cccc(NC(=O)N(C)Cc2ccc(-c3[nH]nc4c3Cc3cc(CN5CCN(C)CC5)ccc3-4)s2)c1 |
| 9.75 | 2.82 |  |  |  | Cc1cccc(NC(=O)N(Cc2ccc(-c3[nH]nc4c3Cc3cc(CN5CCN(C)CC5)ccc3-4)s2)C(C)C)c1 |
| 0.038 | 0.02 |  |  |  | CN1CCN(Cc2ccc3c(c2)-c2n[nH]c(-c4ccc(CN(C)C(=O)Nc5cccc(Cl)c5)s4)c2C3)CC1 |
| 0.025 | 0.033 |  |  |  | CN1CCN(Cc2ccc3c(c2)Cc2c-3n[nH]c2-c2ccc(CN(C)C(=O)Nc3cc(F)cc(C(F)(F)F)c3)s2)CC1 |
| 0.056 | 0.019 |  |  |  | CN1CCN(Cc2ccc3c(c2)Cc2c-3n[nH]c2-c2ccc(CN(C)C(=O)Nc3cccc(OC(F)(F)F)c3)s2)CC1 |
| 0.075 | 0.059 |  |  |  | CCCN(Cc1ccc(-c2[nH]nc3c2Cc2cc(CN4CCN(C)CC4)ccc2-3)s1)C(=O)Nc1cccc(C)c1 |
| 0.036 | 0.064 |  |  |  | CN1CCN(Cc2ccc3c(c2)-c2n[nH]c(-c4ccc(CN(C)C(=O)Nc5ccc(Cl)cc5)s4)c2C3)CC1 |
| 0.038 | 2.28 |  |  |  | CN1CCN(Cc2ccc3c(c2)Cc2c(-c4ccc(CNC(=O)Nc5cc(Cl)cc(Cl)c5)s4)n[nH]c2-3)CC1 |
| 0.059 | 0.083 |  |  |  | CN1CCN(Cc2ccc3c(c2)-c2n[nH]c(-c4ccc(CN(C)C(=O)Nc5ccc(F)cc5)s4)c2C3)CC1 |
| 0.024 | 11.5 |  |  |  | Cc1ccc(NC(=O)NCc2ccc(-c3[nH]nc4c3Cc3cc(CN5CCN(C)CC5)ccc3-4)s2)cc1 |
| 0.139 | 14.6 |  |  |  | Cc1cccc(N(C)C(=O)NCc2ccc(-c3[nH]nc4c3Cc3cc(CN5CCN(C)CC5)ccc3-4)s2)c1 |
| 1.39 | 25 |  |  |  | Cc1ccccc1NC(=O)NCc1ccc(-c2[nH]nc3c2Cc2cc(CN4CCN(C)CC4)ccc2-3)s1 |
|  |  | > 50 |  |  | Cc1ccc2nc(NCc3ccc(-c4[nH]nc5c4Cc4cc(CN6CCN(C)CC6)ccc4-5)s3)[nH]c2c1 |
